Structures are written as SMILES.

What all share (type): in vivo
Experiment [1] concerns Alopecurus myosuroides. As to the kind of experiment: greenhouse test, post-emergence treatment, ALOMY. The following applies: post-emergence. In outline:
(§1)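 Visual injury rating on a 0–100 scale (0 = no damage, 100 = aerial parts fully destroyed) after a 2–4 week test period. Foliar application of compound in aqueous suspension/emulsion to plants at 3–15 cm; greenhouse temperatures 10–25 °C or 20–35 °C depending on species.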

Experiment [2] concerns Amaranthus retroflexus. As to the kind of experiment: greenhouse test, post-emergence treatment, AMARE. An excerpt:
(§2) The culture containers used were plastic flowerpots containing loamy sand with approximately 3.0% of humus as the substrate. The seeds of the test plants were sown separately for each species.
(§3) For the post-emergence treatment, the test plants were first grown to a height of 3 to 15 cm, depending on the plant habit, and only then treated with the active ingredients which had been suspended or emulsified in water. For this purpose, the test plants were either sown directly and grown in the same containers, or they were first grown separately as seedlings and transplanted into the test containers a few days prior to treatment.
(§4) Depending on the species, the plants were kept at 10-25° C. or 20-35° C., respectively.
(§5) The test period extended over 2 to 4 weeks. During this time, the plants were tended, and their response to the individual treatments was evaluated.
(§6) Evaluation was carried out using a scale from 0 to 100. 100 means no emergence of the plants, or complete destruction of at least the aerial moieties, and 0 means no damage, or normal course of growth. A good herbicidal activity is given at values of at least 70 and a very good herbicidal activity is given at values of at least 85.
(§7) The plants used in the greenhouse experiments were of the following species: […]

Experiment [3] relates to Apera spica-venti. As to the kind of experiment: greenhouse test, pre-emergence treatment, APESV. The gist of the method:
(§8)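 Herbicidal effect rated on a 0-100 scale, where 0 is normal growth and 100 is no emergence or destroyed aerial parts, 2 to 4 weeks after soil application at sowing.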

For experiment [4], the system named is Echinocloa crus-galli. As to the kind of experiment: greenhouse test, pre-emergence treatment, ECHCG. The gist of the method: as §8
Experiment [5] relates to Avena fatua. The experiment is described as follows: greenhouse test, post-emergence treatment, AVEFA. The following applies: 1000 g/ha. The gist of the method: as §1
In experiment [6] the test system is Setaria viridis. The experiment is described as follows: greenhouse test, post-emergence treatment, SETVI.
Description: as §2, §3, §4, §5, §6, §7

The test system of experiment [7] is Echinocloa crus-galli. The experiment is described as follows: greenhouse test, post-emergence treatment, ECHCG. The following applies: post-emergence. The gist of the method:
as §1

`OCc1nc(C2CC2)ncc1-c1ccc(F)cc1Cl` [Ex. 15]: the herbicidal activity result in experiment [1] (1000 g/ha) is “very good (a very good herbicidal activity is given at values of at least 85)”; in experiment [2] (1000 g/ha) it was “good (A good herbicidal activity is given at values of at least 70)”; in experiment [3] (1000 g/ha) it was “very good (a very good herbicidal activity is given at values of at least 85)”; in experiment [4] (1000 g/ha), “very good (a very good herbicidal activity is given at values of at least 85)”; in experiment [5], “very good (a very good herbicidal activity is given at values of at least 85)”. As to `Fc1cccc(-c2cnc(C3CC3)nc2-c2ccco2)c1Cl` [Ex. 33], in experiment [6] (2000 g/ha), the herbicidal activity entry is recorded as “good (A good herbicidal activity is given at values of at least 70)”. For `O=[N+]([O-])c1ccccc1-c1cnc(C2CC2)nc1-c1cccs1` [Ex. 38], the herbicidal activity result in experiment [6] (1000 g/ha) is given as “good (A good herbicidal activity is given at values of at least 70)”. The same measure, in the same setting: as for `CC(Br)c1ncc(-c2ccccc2Cl)c(CBr)n1` (centres unmarked) [Ex. 51], the entry is “very good (a very good herbicidal activity is given at values of at least 85)”; as for `Cc1nc(C(C)Br)ncc1-c1ccccc1Cl` (centres unmarked) [Ex. 52], “very good (a very good herbicidal activity is given at values of at least 85)”. Turning to `CCc1ncc(-c2ccccc2Br)c(-c2ccco2)n1` [Ex. 62], the herbicidal activity entry in experiment [6] (500 g/ha) is “very good (a very good herbicidal activity is given at values of at least 85)”. As to `OC1(Cc2nc(C3CC3)ncc2-c2ccccc2Cl)CCC1` [Ex. 65], the herbicidal activity result in experiment [2] (2000 g/ha) and in experiment [7] (2000 g/ha) was “very good (a very good herbicidal activity is given at values of at least 85)” in each case. With `CC(C)=Cc1nc(C2CC2)ncc1-c1ccccc1Cl` [Ex. 70], the herbicidal activity entry in experiment [1] (2000 g/ha) and in experiment [6] (2000 g/ha) was “very good (a very good herbicidal activity is given at values of at least 85)” each time. With `OC1(Cc2nc(C3CC3)ncc2-c2ccccc2Cl)CCCC1` [Ex. 74], the herbicidal activity entry in experiment [6] (2000 g/ha) is on record as “very good (a very good herbicidal activity is given at values of at least 85)”. With `Ic1ccccc1-c1cnc(C2CC2)nc1-c1ccco1` [Ex. 76], the figures for the herbicidal activity entry in experiment [1] (1000 g/ha) and in experiment [6] (1000 g/ha) were “good (A good herbicidal activity is given at values of at least 70)” and “very good (a very good herbicidal activity is given at values of at least 85)”, respectively. Turning to `Ic1ccccc1-c1cnc(C2CCC2)nc1-c1ccco1` [Ex. 78], the herbicidal activity entry in experiment [6] (1000 g/ha) is “very good (a very good herbicidal activity is given at values of at least 85)”. Turning to `CCOP(=O)(OCC)C(Cc1nc(C2CC2)ncc1-c1ccccc1Cl)P(=O)(OCC)OCC` [Ex. 88], in experiment [6] (2000 g/ha), the herbicidal activity entry is recorded as “very good (a very good herbicidal activity is given at values of at least 85)”. Still for that read-out and setting: as for `O=P(O)(O)C(Cc1nc(C2CC2)ncc1-c1ccccc1Cl)P(=O)(O)O` [Ex. 90], the entry is “very good (a very good herbicidal activity is given at values of at least 85)”. As for `Clc1ccccc1-c1cnc(C2CC2)nc1CC1CCOCC1` [Ex. 96], in experiment [6] (1000 g/ha), the herbicidal activity result is on record as “very good (a very good herbicidal activity is given at values of at least 85)”. As to `Clc1ccccc1-c1cnc(C2CC2)nc1CC1CCC1` [Ex. 98], in experiment [6] (500 g/ha), the herbicidal activity result was “good (A good herbicidal activity is given at values of at least 70)”.

`Clc1ccccc1-c1cnc(C2CC2)nc1CC1CCCC1` [Ex. 99]: in experiment [6] (2000 g/ha), the herbicidal activity result was “very good (a very good herbicidal activity is given at values of at least 85)”.

As to `CC(C)(C)CCc1nc(C2CC2)ncc1-c1ccccc1Cl` [Ex. 103], in experiment [6] (2000 g/ha), the herbicidal activity entry is “very good (a very good herbicidal activity is given at values of at least 85)”. In the case of `CC(O)c1nc(C2CC2)ncc1-c1ccccc1Br` (centres unmarked) [Ex. 114], in experiment [6] (500 g/ha), the herbicidal activity entry was “very good (a very good herbicidal activity is given at values of at least 85)”. In the case of `Clc1ccc(-c2nc(C3CC3)ncc2-c2ccccc2Cl)s1` [Ex. 119], the herbicidal activity result in experiment [1] (1000 g/ha) is given as “very good (a very good herbicidal activity is given at values of at least 85)”; in experiment [6] (1000 g/ha), “good (A good herbicidal activity is given at values of at least 70)”.

As for `COC(=O)C(O)Cc1nc(C2CC2)ncc1-c1ccccc1Cl` (centres unmarked) [Ex. 129], the herbicidal activity entry in experiment [1] (2000 g/ha), in experiment [2] (2000 g/ha), in experiment [7] (2000 g/ha) and in experiment [3] (2000 g/ha) was “very good (a very good herbicidal activity is given at values of at least 85)” throughout. As to `O=C(O)/C=C/c1nc(C2CC2)ncc1-c1ccccc1Cl` [Ex. 131], the herbicidal activity entry in experiment [2] (2000 g/ha) and in experiment [7] (2000 g/ha) was “very good (a very good herbicidal activity is given at values of at least 85)” throughout. For `COC(=O)CCc1nc(C2CC2)ncc1-c1ccccc1Cl` [Ex. 132], the herbicidal activity result is on record as “good (A good herbicidal activity is given at values of at least 70)” in experiment [2] (2000 g/ha) and “very good (a very good herbicidal activity is given at values of at least 85)” in experiment [7] (2000 g/ha).

As to `COC(=O)COC(C)c1nc(C2CC2)ncc1-c1ccccc1Cl` (centres unmarked) [Ex. 141], the herbicidal activity entry in experiment [6] (1000 g/ha) is “good (A good herbicidal activity is given at values of at least 70)”.

With `COC(=O)Cc1nc(C2CC2)ncc1-c1cc(F)ccc1Cl` [Ex. 150], the herbicidal activity result is “good (A good herbicidal activity is given at values of at least 70)” in experiment [1] (2000 g/ha); “very good (a very good herbicidal activity is given at values of at least 85)” in experiment [2] (2000 g/ha); “very good (a very good herbicidal activity is given at values of at least 85)” in experiment [7] (2000 g/ha); “very good (a very good herbicidal activity is given at values of at least 85)” in experiment [3] (2000 g/ha); “good (A good herbicidal activity is given at values of at least 70)” in experiment [4] (2000 g/ha). Consider `COc1ccc(-c2nc(C3CC3)ncc2-c2ccccc2Cl)cc1` [Ex. 164], for which, in experiment [2] (2000 g/ha), the herbicidal activity result was “very good (a very good herbicidal activity is given at values of at least 85)”. For `CCOC(=O)Cc1nc(OC)ncc1-c1ccccc1Cl` [Ex. 226], the herbicidal activity result in experiment [2] (500 g/ha) was “very good (a very good herbicidal activity is given at values of at least 85)”. Regarding `Clc1ccccc1-c1cnc(C2CC2)nc1/C=C/c1c(Cl)ccc(Cl)c1Cl` [Ex. 232], in experiment [2] (2000 g/ha), the herbicidal activity result was “very good (a very good herbicidal activity is given at values of at least 85)”. Consider `Cc1occc1-c1nc(C2CC2)ncc1-c1ccccc1Br` [Ex. 238], for which the herbicidal activity result in experiment [2] (2000 g/ha) and in experiment [7] (2000 g/ha) was “very good (a very good herbicidal activity is given at values of at least 85)” in each case. For `Cc1cc(-c2nc(C3CC3)ncc2-c2ccccc2Cl)sn1` [Ex. 254], the herbicidal activity result in experiment [1] (1000 g/ha) is “good (A good herbicidal activity is given at values of at least 70)”; in experiment [2] (1000 g/ha), “very good (a very good herbicidal activity is given at values of at least 85)”; in experiment [7] (1000 g/ha) it was “very good (a very good herbicidal activity is given at values of at least 85)”. Consider `OCCc1nc(C2CC2)ncc1-c1ccccc1Cl` [Ex. 255], for which, in experiment [2] (500 g/ha), the herbicidal activity entry is reported as “good (A good herbicidal activity is given at values of at least 70)”.

The values above are taken from patent US11178871B2, “Herbicidal pyrimidine compounds” (BASF SE, priority 2016, dated 2021).
